Measured values taken from patent US12263163B2 (Kronos Bio, Inc., priority 2013, dated 2025).

Tested on: human hepatocytes
Test: Human Hepatocyte Stability Assay (predicted hepatocyte clearance)
Format: in vitro ADME
Details: comparison table with known Syk inhibitors, head prints (units)
Experimental: The human […] stability of the compounds as predicted hepatocyte clearance in L/hr/kg was assessed. Compounds to be tested were diluted to 200 μM (4 μl of 10 mM DMSO stock into 196 μl ACN:H2O (50:50). Propranolol was used as a positive control, and buffer only without hepatocytes as 0% control. These were further diluted 4 μl with 891 μl KHB buffer (InVitroGRO catalog number Z99074) to provide 2× dosing solution. To each well of 24 well plate, 250 μl of the 2× dosing solution was added to each well with 250 μl of hepatocytes cells (1×10^6 viable cells/ml per well) or KHB for control samples to achieve a final compound concentration of 1 μM during incubation. The final solvent concentration was 0.01% DMSO and 0.25% ACN. The culture plate was placed on a rocker and incubated at 37° C., 5% CO2. Samples were collected at time 0, 1, 3, and 6 hours. The loss of parent compound was determined using LC-MS methods against a standard curve.

Row | Structure (SMILES) | Hheps CL [mL/min/kg]
1 | Nc1cncc(-c2cn3ccnc3c(Nc3ccc(N4CCN(C5COC5)CC4)c(OCCO)c3)n2)n1 [Ex.-5, 2-(5-((6-(6-aminopyrazin-2-yl)imidazo[1,2-a]pyrazin-8-yl)amino)-2-(4-(oxetan-3-yl)piperazin-1-yl)phenoxy)ethanol] | 1.2
2 | Cc1c(-c2cncc(N)n2)nc(Nc2ccc(N3CCN(C4COC4)CC3)cc2)c2nccn12 [Ex.-4, 6-(6-aminopyrazin-2-yl)-5-methyl-N-(4-(4-(oxetan-3-yl)piperazin-1-yl)phenyl)imidazo[1,2-a]pyrazin-8-amine] | 1.3
3 | COc1ccc(Nc2nc(-c3cccc(N)c3)cn3ccnc23)cc1OC [6-(3-aminophenyl)-N-(3,4-dimethoxyphenyl)imidazo[1,2-a]pyrazin-8-amine, reference compound] | 4
4 | COc1ccc(Nc2nc(-c3ccc(N)nc3)cn3ccnc23)cc1OC [6-(6-aminopyridin-3-yl)-N-(3,4-dimethoxyphenyl)imidazo[1,2-a]pyrazin-8-amine, reference compound] | 15
5 | Cc1ncc(-c2cn3ccnc3c(Nc3ccc(N4CCN(C5COC5)CC4)c(OCCO)c3)n2)nc1N [Ex.-7, 2-(5-((6-(6-amino-5-methylpyrazin-2-yl)imidazo[1,2-a]pyrazin-8-yl)amino)-2-(4-(oxetan-3-yl)piperazin-1-yl)phenoxy)ethanol] | 0.83

Continued, values first:

Row | Hheps CL [mL/min/kg] | Structure (SMILES)
6 | 1.3 | Nc1cncc(-c2cn3ccnc3c(Nc3ccc(N4CCN(CC(CO)CO)CC4)cc3)n2)n1 [Ex.-6, 2-((4-(4-((6-(6-aminopyrazin-2-yl)imidazo[1,2-a]pyrazin-8-yl)amino)phenyl)piperazin-1-yl)methyl)propane-1,3-diol]
7 | 11.3 | Nc1cncc(-c2cn3ccnc3c(Nc3ccc(N4CCOCC4)cc3)n2)c1 [6-(5-aminopyridin-3-yl)-N-(4-morpholinophenyl)imidazo[1,2-a]pyrazin-8-amine, reference compound]
8 | 2 | Cc1ncc(-c2cn3ccnc3c(Nc3ccc(N4CCN(C5COC5)CC4)cc3)n2)nc1N [Ex.-1, 6-(6-amino-5-methylpyrazin-2-yl)-N-(4-(4-(oxetan-3-yl)piperazin-1-yl)phenyl)imidazo[1,2-a]pyrazin-8-amine]
9 | 0.917 | Nc1cncc(-c2cn3ccnc3c(Nc3ccc(N4CCN(C5COC5)CC4)cc3)n2)n1 [Ex.-2, 6-(6-aminopyrazin-2-yl)-N-(4-(4-(oxetan-3-yl)piperazin-1-yl)phenyl)imidazo[1,2-a]pyrazin-8-amine]
10 | 13.3 | Cc1ncc(-c2cn3ccnc3c(Nc3ccc(N4CCOCC4)cc3)n2)cc1N [6-(5-amino-6-methylpyridin-3-yl)-N-(4-morpholinophenyl)imidazo[1,2-a]pyrazin-8-amine, reference compound]
11 | 1.5 | Nc1cncc(-c2cn3ccnc3c(Nc3ccc(N4CCO[C@@H](CO)C4)cc3)n2)n1 [Ex.-3, (R)-(4-(4-((6-(6-aminopyrazin-2-yl)imidazo[1,2-a]pyrazin-8-yl)amino)phenyl)morpholin-2-yl)methanol]
